Experimental data as given in PubChem BioAssay (NCI).
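Each compound was tested at five concentrations against cells in 96-well plates for 48 hours. TGI marks complete inhibition of growth.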

Tests used:
Test in all cases: NCI tumour cell line growth inhibition, 48 h
HOP-92 NSCLC = system: HOP-92 NSCLC
MCF7 breast = system: MCF7 breast
NCI/ADR-RES ovarian = system: NCI/ADR-RES ovarian
SF-295 CNS = system: SF-295 CNS
OVCAR-5 ovarian = system: OVCAR-5 ovarian
SNB-19 CNS = system: SNB-19 CNS
SF-539 CNS = system: SF-539 CNS
UACC-62 melanoma = system: UACC-62 melanoma
HT29 colon = system: HT29 colon
HL-60(TB) leukemia = system: HL-60(TB) leukemia
SR leukemia = system: SR leukemia
TK-10 renal = system: TK-10 renal
HCT-116 colon = system: HCT-116 colon
EKVX NSCLC = system: EKVX NSCLC
PC-3 prostate = system: PC-3 prostate
UACC-257 melanoma = system: UACC-257 melanoma
SK-OV-3 ovarian = system: SK-OV-3 ovarian
CCRF-CEM leukemia = system: CCRF-CEM leukemia
COLO 205 colon = system: COLO 205 colon
DU-145 prostate = system: DU-145 prostate
NCI-H226 lung = system: NCI-H226 lung
SW-620 colon = system: SW-620 colon
K-562 leukemia = system: K-562 leukemia
NCI-H522 lung = system: NCI-H522 lung
MOLT-4 leukemia = system: MOLT-4 leukemia
HCT-15 colon = system: HCT-15 colon
BT-549 breast = system: BT-549 breast
HCC-2998 colon = system: HCC-2998 colon
LOX IMVI melanoma = system: LOX IMVI melanoma
786-0 renal = system: 786-0 renal
KM12 colon = system: KM12 colon
U251 CNS = system: U251 CNS
SF-268 CNS = system: SF-268 CNS
RPMI-8226 leukemia = system: RPMI-8226 leukemia
SK-MEL-28 melanoma = system: SK-MEL-28 melanoma
NCI-H23 lung = system: NCI-H23 lung
SN12C renal = system: SN12C renal
ACHN renal = system: ACHN renal
T-47D breast = system: T-47D breast
MDA-MB-231 breast = system: MDA-MB-231 breast
A549 NSCLC = system: A549 NSCLC
HOP-62 NSCLC = system: HOP-62 NSCLC
MDA-MB-435 = system: MDA-MB-435
UO-31 renal = system: UO-31 renal
M14 melanoma = system: M14 melanoma
A498 renal = system: A498 renal
CAKI-1 renal = system: CAKI-1 renal
SK-MEL-5 melanoma = system: SK-MEL-5 melanoma
OVCAR-3 ovarian = system: OVCAR-3 ovarian
SK-MEL-2 melanoma = system: SK-MEL-2 melanoma
IGROV1 ovarian = system: IGROV1 ovarian
OVCAR-8 ovarian = system: OVCAR-8 ovarian
MDA-N = system: MDA-N
OVCAR-4 ovarian = system: OVCAR-4 ovarian

SMILES: O=CNCCCN1CCN(CCCNC=O)CC1
- TGI (HOP-92 NSCLC): > 100 µM
- TGI (MCF7 breast): > 100 µM
- TGI (NCI/ADR-RES ovarian): > 100 µM
- TGI (SF-295 CNS): > 100 µM
- TGI (OVCAR-5 ovarian): > 100 µM
- TGI (SNB-19 CNS): > 100 µM
- TGI (SF-539 CNS): > 100 µM
- TGI (UACC-62 melanoma): > 100 µM
- TGI (HT29 colon): > 100 µM
- TGI (HL-60(TB) leukemia): > 100 µM
- TGI (SR leukemia): > 100 µM
- TGI (TK-10 renal): > 100 µM
- TGI (HCT-116 colon): > 100 µM
- TGI (EKVX NSCLC): > 100 µM
- TGI (PC-3 prostate): > 100 µM
- TGI (UACC-257 melanoma): > 100 µM
- TGI (SK-OV-3 ovarian): > 100 µM
- TGI (CCRF-CEM leukemia): > 100 µM
- TGI (COLO 205 colon): > 100 µM
- TGI (DU-145 prostate): > 100 µM
- TGI (NCI-H226 lung): > 100 µM
- TGI (SW-620 colon): > 100 µM
- TGI (K-562 leukemia): > 100 µM
- TGI (NCI-H522 lung): 4.07 µM
- TGI (MOLT-4 leukemia): > 100 µM
- TGI (HCT-15 colon): > 100 µM
- TGI (BT-549 breast): > 100 µM
- TGI (HCC-2998 colon): > 100 µM
- TGI (LOX IMVI melanoma): > 100 µM
- TGI (786-0 renal): > 100 µM
- TGI (KM12 colon): > 100 µM
- TGI (U251 CNS): > 100 µM
- TGI (SF-268 CNS): 9.78 µM
- TGI (RPMI-8226 leukemia): > 100 µM
- TGI (SK-MEL-28 melanoma): > 100 µM
- TGI (NCI-H23 lung): > 100 µM
- TGI (SN12C renal): > 100 µM
- TGI (ACHN renal): > 100 µM
- TGI (T-47D breast): > 100 µM
- TGI (MDA-MB-231 breast): > 100 µM
- TGI (A549 NSCLC): > 100 µM
- TGI (HOP-62 NSCLC): > 100 µM
- TGI (MDA-MB-435): > 100 µM
- TGI (UO-31 renal): > 100 µM
- TGI (M14 melanoma): > 100 µM
- TGI (A498 renal): > 100 µM
- TGI (CAKI-1 renal): > 100 µM
- TGI (SK-MEL-5 melanoma): > 100 µM
- TGI (OVCAR-3 ovarian): > 100 µM
- TGI (SK-MEL-2 melanoma): > 100 µM
- TGI (IGROV1 ovarian): > 100 µM
- TGI (OVCAR-8 ovarian): > 100 µM
- TGI (MDA-N): > 100 µM
- TGI (OVCAR-4 ovarian): > 100 µM
